Test results as given in patent US11370796B2, “Substituted pyrazoles as LRRK2 inhibitors” (OSCOTEC INC., priority 2017, dated 2022).
Where two headings read alike, the source gives them in different places.

Molecular target: LRRK2 (leucine-rich repeat kinase 2) (Homo sapiens (Human), UniProt Q5S007)
Assay: Inhibitory effect on LRRK2 in vitro (LANCE kinase assay)
Format: biochemical
Protocol: The inhibitory effect of Compounds 1 to 62 on LRRK2 (leucine-rich repeat kinase 2) in vitro was measured. In the analysis of the results, IC50 values were calculated for a quantitative comparison of the in vitro activity.
After the compound was dissolved in 100% DMSO at 10 mM, it was serially diluted to the range of 1 μM to 10 μM using biochemical LRRK2 assay buffer (50 mM HEPES (4-(2-hydroxyethyl)-1-piperazineethanesulfonic acid) pH 7.5, 10 mM MgCl2, 1 mM EGTA (1,2-bis(o-aminophenoxy)ethane-N,N,N′,N′-tetraacetic acid), 2 mM DTT (dithiothreitol), and 0.01% TWEEN-20 (Aldrich)). Purified LRRK2 (CARNA BIOSCIENCES) was added to a black U-bottom 96-well microtiter plate containing 6 μl of the serially diluted compound, followed by incubation at room temperature for 30 minutes. For the kinase reaction, ATP and a substrate solution specific urea-polypeptide (ULIGHT™-poly TK, PerkinElimer) were added. The reaction was carried out at room temperature for 1 hour, and it was detected with an detection solution (brand name: LANCE™) containing EDTA. A LANCE detection solution containing europium-labeled antibody ([…] PT66) was added, followed by incubation at room temperature for 50 minutes, to terminate the kinase experiment. The phosphorylated substrate was detected by 665 nm emission measurement. IC50 values were calculated by a non-linear regression analysis using a Prism program (PRISM™ software) with reference to the absence of a kinase inhibitor.
As a comparative assay, a compound LRR2-IN-1, that known to be a reference compound for LRRK2 inhibitor, have also tested an inhibitory activity.

[1] = Table 1, class symbols, read-out: LRRK2 inhibition rate (IC50)

Chain of LRRK2 (leucine-rich repeat kinase 2) (Q5S007 whole entry): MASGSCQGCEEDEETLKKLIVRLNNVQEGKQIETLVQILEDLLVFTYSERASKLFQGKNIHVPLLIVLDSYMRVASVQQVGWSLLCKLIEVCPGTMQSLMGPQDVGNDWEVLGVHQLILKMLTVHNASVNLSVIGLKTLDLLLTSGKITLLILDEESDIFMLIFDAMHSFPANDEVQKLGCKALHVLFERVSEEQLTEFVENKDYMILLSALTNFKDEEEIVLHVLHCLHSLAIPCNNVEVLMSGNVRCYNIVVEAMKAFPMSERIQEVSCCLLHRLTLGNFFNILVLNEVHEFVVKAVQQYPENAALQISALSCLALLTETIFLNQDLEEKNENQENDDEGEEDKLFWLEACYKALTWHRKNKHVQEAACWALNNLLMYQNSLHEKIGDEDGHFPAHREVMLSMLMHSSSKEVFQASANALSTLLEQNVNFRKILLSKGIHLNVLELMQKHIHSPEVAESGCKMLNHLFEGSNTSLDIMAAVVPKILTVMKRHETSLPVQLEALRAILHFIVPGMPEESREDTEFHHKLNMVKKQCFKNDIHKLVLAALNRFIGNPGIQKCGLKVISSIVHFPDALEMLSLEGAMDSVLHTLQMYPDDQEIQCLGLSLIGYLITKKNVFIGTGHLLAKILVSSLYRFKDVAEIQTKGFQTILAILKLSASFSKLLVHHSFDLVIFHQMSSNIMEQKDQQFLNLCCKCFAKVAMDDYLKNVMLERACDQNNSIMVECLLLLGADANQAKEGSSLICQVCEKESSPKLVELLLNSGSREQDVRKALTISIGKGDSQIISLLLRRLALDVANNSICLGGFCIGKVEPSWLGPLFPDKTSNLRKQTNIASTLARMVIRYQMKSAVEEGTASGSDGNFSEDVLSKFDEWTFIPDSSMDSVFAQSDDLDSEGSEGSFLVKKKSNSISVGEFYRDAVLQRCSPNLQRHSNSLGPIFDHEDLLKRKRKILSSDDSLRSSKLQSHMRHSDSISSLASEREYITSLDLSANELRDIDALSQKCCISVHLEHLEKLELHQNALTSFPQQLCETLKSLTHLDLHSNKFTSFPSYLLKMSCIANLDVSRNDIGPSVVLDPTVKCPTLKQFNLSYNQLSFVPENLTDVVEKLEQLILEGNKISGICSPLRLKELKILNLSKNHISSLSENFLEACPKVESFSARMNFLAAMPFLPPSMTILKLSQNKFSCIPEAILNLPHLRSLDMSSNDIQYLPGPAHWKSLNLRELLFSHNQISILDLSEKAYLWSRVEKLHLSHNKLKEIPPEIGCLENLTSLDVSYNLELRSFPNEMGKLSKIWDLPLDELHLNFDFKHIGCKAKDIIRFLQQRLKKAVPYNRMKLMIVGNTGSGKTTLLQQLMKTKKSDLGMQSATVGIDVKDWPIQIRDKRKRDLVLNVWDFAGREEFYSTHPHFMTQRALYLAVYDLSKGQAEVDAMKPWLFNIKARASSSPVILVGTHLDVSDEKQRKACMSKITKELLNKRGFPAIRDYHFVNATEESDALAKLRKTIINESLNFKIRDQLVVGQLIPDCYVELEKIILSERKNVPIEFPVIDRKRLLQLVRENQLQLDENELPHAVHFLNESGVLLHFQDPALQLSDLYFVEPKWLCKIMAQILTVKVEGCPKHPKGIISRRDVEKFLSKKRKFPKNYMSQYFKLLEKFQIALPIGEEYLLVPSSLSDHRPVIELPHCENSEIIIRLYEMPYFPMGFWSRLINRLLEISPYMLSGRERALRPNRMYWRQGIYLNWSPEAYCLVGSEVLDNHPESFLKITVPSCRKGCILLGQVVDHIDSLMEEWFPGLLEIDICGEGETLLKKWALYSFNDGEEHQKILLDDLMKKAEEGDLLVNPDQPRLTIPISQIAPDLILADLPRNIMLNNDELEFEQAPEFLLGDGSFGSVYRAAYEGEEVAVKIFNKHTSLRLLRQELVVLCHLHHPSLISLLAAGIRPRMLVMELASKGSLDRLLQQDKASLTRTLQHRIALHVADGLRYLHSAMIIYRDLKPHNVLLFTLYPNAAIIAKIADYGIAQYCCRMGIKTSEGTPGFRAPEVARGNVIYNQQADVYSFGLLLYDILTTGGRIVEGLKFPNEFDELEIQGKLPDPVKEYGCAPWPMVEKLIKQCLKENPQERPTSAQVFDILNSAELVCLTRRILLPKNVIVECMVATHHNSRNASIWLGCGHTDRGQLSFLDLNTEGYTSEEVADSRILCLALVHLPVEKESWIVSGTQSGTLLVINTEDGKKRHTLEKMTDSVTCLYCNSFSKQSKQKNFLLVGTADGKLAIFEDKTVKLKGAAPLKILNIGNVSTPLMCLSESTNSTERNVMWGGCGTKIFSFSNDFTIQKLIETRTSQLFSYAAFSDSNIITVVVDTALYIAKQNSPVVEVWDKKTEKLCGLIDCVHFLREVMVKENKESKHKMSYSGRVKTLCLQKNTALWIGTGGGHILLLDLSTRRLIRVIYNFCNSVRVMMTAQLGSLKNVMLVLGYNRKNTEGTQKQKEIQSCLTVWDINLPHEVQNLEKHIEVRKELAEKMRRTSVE

| SMILES | IC50 [1] | IC50 (purified LRRK2, Table 6, read-out: IC50) |
| --- | --- | --- |
| CCn1cc(Cl)c2cnc(Nc3cnn(C)c3Cl)nc21 [Compound 6, 5-chloro-N-(5-chloro-1-methyl-1H-pyrazol-4-yl)-7-ethyl-7H-pyrrolo[2,3-d]pyrimidin-2-amine] | 10 to 100 nM | – |
| CCn1nc(Cl)c2cnc(Nc3cn(C4CCN(S(=O)(=O)CC)CC4)nc3Cl)nc21 [Compound 59, 3-chloro-N-(3-chloro-1-(1-(ethylsulfonyl)piperidin-4-yl)-1H-pyrazol-4-yl)-1-ethyl-1H-pyrazolo[3,4-d]pyrimidin-6-amine] | < 10 nM | 3.94 nM |
| CCn1cc(Cl)c2cnc(Nc3cn(CC4CC4)nc3Cl)nc21 [Compound 13, 5-chloro-N-(3-chloro-1-(cyclopropylmethyl)-1H-pyrazol-4-yl)-7-ethyl-7H-pyrrolo[2,3-d]pyrimidin-2-amine] | 10 to 100 nM | – |
